Assay results reported in US11013235B2 (priority 2015, dated 2021).
Like-named read-outs stand apart in the source and are kept apart here.

Tests used:
Assay type in all cases: in vivo
[1] = test system: Candidatus 'Liberibacter asiaticus'; details: spraying every 15 days, 12 months after treatment, Citrus sinensis with HLB
Phytophthora parasitica = assay: Control of Phytophthora parasitica disease in tobacco (Pp-Nt); details: 1 μM spraying every 24 hours for one week, water control 91
Experimental: (§1) In order to compare the effect of the compounds of formula I to V on the control of diseases in different plants, experiments were conducted in tobacco, tomato and Arabidopsis thaliana plants inoculated with Phytophthora parasitica, Rhizoctonia solani, Alternaria solani, Nocardia sp and Botrytis cinerea, respectively. The compounds were applied by spraying, at a concentration of 1 μM, every 24 hours for one week. The plant mortality rate was determined for the disease produced by Phytophthora parasitica, Rhizoctonia solani and Nocardia sp, while the percentage of leaves with symptoms was determined for the infection by Alternaria solani. In the case of plants affected by Botrytis cinerea, the lesion diameter was measured. […] Each treatment included fifty plants. As control, plants treated with water were studied. The plants of each treatment were previously inoculated with the indicated pathogens, according to different inoculation protocols (Frontiers in Plant Science 3: 268, 1-6, 2012), and later they were treated with the compounds.

Rhizoctonia solani [2] = assay: Control of Rhizoctonia solani disease in tobacco (Rs-Nt); details: 1 μM spraying every 24 hours for one week, water control 87
Experimental: as §1

Nocardia sp = assay: Control of Nocardia sp disease in tobacco (N-Nt); details: 1 μM spraying every 24 hours for one week, water control 58
Experimental: as §1

Rhizoctonia solani [3] = assay: Control of Rhizoctonia solani disease in tomato (Rs-SI); details: 1 μM spraying every 24 hours for one week, water control 96
Experimental: as §1

Alternaria solani = assay: Control of Alternaria solani disease in tomato (As-SI); details: 1 μM spraying every 24 hours for one week, water control 68
Experimental: as §1

Botrytis cinerea [4] = assay: Control of Botrytis cinerea disease in Arabidopsis (Bc-At); details: 1 μM spraying every 24 hours for one week, water control 8.7
Experimental: as §1

Botrytis cinerea [5] = assay: Control of Botrytis cinerea disease in tobacco (Bc-Nt); details: 1 μM spraying every 24 hours for one week, water control 6.7
Experimental: as §1

Botrytis cinerea [6] = assay: Control of Botrytis cinerea disease in tomato (Bc-SI); details: 1 μM spraying every 24 hours for one week, water control 7.4
Experimental: as §1

Radopholus similis = assay: Nematode control, nodules per plant: Radopholus similis; details: 1 μM foliar application every 5 days, evaluation 35 days after, control 45
Experimental: (§2) The solutions of the compounds were prepared in ethanol and diluted in water, up to a concentration of 1 μM for a foliar application. Applications were conducted every 5 days, spraying only the leafs with each compound. Ten plants were used for each treatment and the final evaluation was performed 35 days after, by quantifying the number of nodules per plant.

Meloidogyne incognita = assay: Nematode control, nodules per plant: Meloidogyne incognita; details: 1 μM foliar application every 5 days, evaluation 35 days after, control 34
Experimental: as §2

Pratylenchus coffeae = assay: Nematode control, nodules per plant: Pratylenchus coffeae; details: 1 μM foliar application every 5 days, evaluation 35 days after, control 42
Experimental: as §2

Structure (SMILES)	Titers of the bacterium ([1]; 0.001 μM)	Titers of the bacterium ([1]; 0.01 μM)	Titers of the bacterium ([1]; 1 μM)	Titers of the bacterium ([1]; 5 μM)	Titers of the bacterium ([1]; 10 μM)	Pp-Nt: percentage of mortality (Phytophthora parasitica)	Rs-Nt: percentage of mortality (Rhizoctonia solani [2])	N-Nt: percentage of mortality (Nocardia sp)	Rs-SI: percentage of mortality (Rhizoctonia solani [3])	As-SI: percentage of leaves with the disease symptoms (Alternaria solani)	Bc-At: mean of the diameter of the lesion (Botrytis cinerea [4])	Bc-Nt: mean of the diameter of the lesion (Botrytis cinerea [5])	Bc-SI: mean of the diameter of the lesion (Botrytis cinerea [6])	Rs: number of nodules per plant (Radopholus similis)	Mi: number of nodules per plant (Meloidogyne incognita)	Pc: number of nodules per plant (Pratylenchus coffeae)
O=C(Cc1cc2c(oc1=O)C=CC1C(c3ccccc3)=COC21)NCC(O)CO (centres unmarked) [IIB, N-(2,3-dihydroxypropyl)-2-{11-oxo-5-phenyl-3,10-dioxatricyclo[7.4.0.0^{2,6}]trideca-1(9),4,7,12-tetraen-12-yl}acetamide]	432 copies per reaction	17 copies per reaction	2 copies per reaction	43 copies per reaction	8654 copies per reaction	2%	3%	1%	2%	2%	1.5 mm	1.5 mm	2.5 mm	2	3	14
O=C(Cc1cc2c(oc1=O)C=CC1C(C3CCCCC3)=COC21)NCC(O)CO (centres unmarked) [IIC, 2-{5-cyclohexyl-11-oxo-3,10-dioxatricyclo[7.4.0.0^{2,6}]trideca-1(9),4,7,12-tetraen-12-yl}-N-(2,3-dihydroxypropyl)acetamide]	123 copies per reaction	25 copies per reaction	2 copies per reaction	23 copies per reaction	4562 copies per reaction	1%	4%	2%	2%	3%	2.4 mm	1.5 mm	0.8 mm	18	4	2
O=C(Cc1cc2c(oc1=O)C=CC1C(C3CCCC3)=COC21)NCC(O)CO (centres unmarked) [IID, 2-{5-cyclopentyl-11-oxo-3,10-dioxatricyclo[7.4.0.0^{2,6}]trideca-1(9),4,7,12-tetraen-12-yl}-N-(2,3-dihydroxypropyl)acetamide]	587 copies per reaction	12 copies per reaction	2 copies per reaction	87 copies per reaction	1351 copies per reaction	0%	0%	1%	2%	8%	0.7 mm	0.9 mm	1.2 mm	0	0	17
O=C(Cc1cc2c(oc1=O)C=CC1C(c3ccc4ccccc4c3)=COC21)NCC(O)CO (centres unmarked) [IIE, N-(2,3-dihydroxypropyl)-2-[5-(naphthalen-2-yl)-11-oxo-3,10-dioxatricyclo[7.4.0.0^{2,6}]trideca-1(9),4,7,12-tetraen-12-yl]acetamide]	985 copies per reaction	1 copies per reaction	5 copies per reaction	98 copies per reaction	2547 copies per reaction	0%	0%	0%	0%	7%	1.2 mm	0.3 mm	0.8 mm	0	0	0
O=C(Cc1cc2c(oc1=O)C=CC1C=COC21)NCC(O)CO (centres unmarked) [IIF, N-(2,3-dihydroxypropyl)-2-{11-oxo-3,10-dioxatricyclo[7.4.0.0^{2,6}]trideca-1(9),4,7,12-tetraen-12-yl}acetamide]	657 copies per reaction	9 copies per reaction	0 copies per reaction	67 copies per reaction	6547 copies per reaction	0%	0%	0%	1%	5%	1.1 mm	2.0 mm	1.6 mm	0	0	0
O=C(Cc1cc2c(oc1=O)C=CC1C(n3cccc3)=COC21)NCC(O)CO (centres unmarked) [IIG, N-(2,3-dihydroxypropyl)-2-[11-oxo-5-(1H-pyrrol-1-yl)-3,10-dioxatricyclo[7.4.0.0^{2,6}]trideca-1(9),4,7,12-tetraen-12-yl]acetamide]	658 copies per reaction	0 copies per reaction	3 copies per reaction	68 copies per reaction	4587 copies per reaction	3%	0%	0%	1%	7%	0.5 mm	0.9 mm	0.8 mm	3	0	0
CC1=COC2c3c(oc(=O)c(CC(=O)NCC(O)CO)c3C)C=CC12 (centres unmarked) [IIH, N-(2,3-dihydroxypropyl)-2-{5,13-dimethyl-11-oxo-3,10-dioxatricyclo[7.4.0.0^{2,6}]trideca-1(9),4,7,12-tetraen-12-yl}acetamide]	756 copies per reaction	0 copies per reaction	1 copies per reaction	76 copies per reaction	2365 copies per reaction	1%	2%	1%	3%	1%	1.5 mm	1.5 mm	2.5 mm	16	2	18
Cc1c2c(oc(=O)c1CC(=O)NCC(O)CO)C=CC1C(c3ccccc3)=COC21 (centres unmarked) [III, N-(2,3-dihydroxypropyl)-2-{13-methyl-11-oxo-5-phenyl-3,10-dioxatricyclo[7.4.0.0^{2,6}]trideca-1(9),4,7,12-tetraen-12-yl}acetamide]	456 copies per reaction	0 copies per reaction	1 copies per reaction	56 copies per reaction	3654 copies per reaction	2%	3%	1%	2%	2%	2.4 mm	1.5 mm	0.8 mm	2	3	1
